Measured values reported in patent US4382937A, “Naphthyridine derivatives and their use as anti-bacterials” (Dainippon Pharmaceutical Co., Ltd., priority 1981, dated 1983).
≈ marks a conversion by molar mass, not a printed value.

Legend:
[1] = tested on: Pseudomonas aeruginosa No. 12; experiment: In vivo therapeutic efficacy against pulmonary infection in mice; parameters: species or system mice (ddY-S); settings: NO.12, 120 h, female mice, po, 0, 1 and 3 hours after infection, survival on 5th day, probit analysis
Procedure: (§1) Female mice (ddY-S) weighing 18 to 26 g were intranasally intected with 4 drops of a bacterial suspension* in physiological saline. Drugs suspended in 0.2% sodium carboxymethyl cellulose were orally administered 0, 1, and 3 hours after infection. Survival rates were determined on the 5th day after infection. ED50 was calculated by probit analysis.
*Pseudomonas aeruginosa No. 12--2.0×10^7 cells/mouse

[2] = tested on: Pseudomonas aeruginosa No. 12; experiment: In vivo therapeutic efficacy against systemic infections in mice; parameters: species or system mice (ddY); settings: 168 h; systemic infection, Pseudomonas aeruginosa No. 12, male mice, po, twice (about 5 minutes and 6 hours after infection), 7 days, Behrens-Kaerber; read-out: median effective dose (ED50)
Procedure: (§2) Compounds 1 and A were each suspended in a 0.2% aqueous solution of sodium carboxymethyl cellulose. Each of the solutions was orally administered to mice infected with each of the test organisms under the conditions described below, and the median effective doses (ED50) obtained are shown in Table II. Male mice (ddY) weighing about 20 g (2) Pseudomonas aeruginosa No. 12: Intraperitoneal infection with about 4×10^3 cells per mouse suspended in trypto-soy broth with 4% mucin. Twice, about 5 minutes and 6 hours after infection. for 7 days. | The numerals in the table show ED50 (mg/kg). ED50 values were | calculated in accordance with the BehrensKaerber method (Arch. Exp. Path. | Pharm., 162, 480 (1931)). | po: oral administration.

Escherichia coli P-5101 [3] = experiment: as above; parameters: species or system mice (ddY); settings: P5101, 168 h; systemic infection, Escherichia coli P-5101, male mice, po, twice (about 5 minutes and 6 hours after infection), 7 days, Behrens-Kaerber; read-out: median effective dose (ED50)
Procedure: as §2, with “(1) Escherichia coli P-5101:” for “(2) Pseudomonas aeruginosa No. 12:”, “9×10^6” for “4×10^3”

[4] = tested on: Escherichia coli NIHJ JC-2; experiment: In vitro antibacterial activity (MIC), twofold agar-dilution method; format: cell-based; settings: NIHJJC2; Escherichia coli NIHJ JC-2, twofold agar-dilution; read-out: minimum inhibitory concentration (MIC)
Procedure: (§3) The minimum inhibitory concentrations (MIC: μg/ml) of the following compounds were measured by the twofold agar-dilution method according to the procedure described in Chemotherapy, Vol. 29, No. 1, page 76 (1981).

[5] = tested on: Salmonella typhimurium S-9; experiment: as above; format: cell-based; settings: Salmonella enterica; Salmonella typhimurium S-9, twofold agar-dilution; read-out: minimum inhibitory concentration (MIC)
Procedure: as §3

Proteus morganii Kono = experiment: as above; format: cell-based; settings: Morganella morganii, read-out: minimum inhibitory concentration (MIC)
Procedure: as §3

Shigella flexneri 2a = experiment: as above; format: cell-based; settings: read-out: minimum inhibitory concentration (MIC)
Procedure: as §3

Escherichia coli P-5101 [6] = experiment: as above; format: cell-based; settings: P5101; Escherichia coli P-5101, twofold agar-dilution; read-out: minimum inhibitory concentration (MIC)
Procedure: as §3

[7] = tested on: Proteus mirabilis IFO 3849-4; experiment: as above; format: cell-based; settings: IFO3849; Proteus mirabilis IFO 3849-4, twofold agar-dilution; read-out: minimum inhibitory concentration (MIC)
Procedure: as §3

[8] = tested on: Pseudomonas aeruginosa Tsuchiijima; experiment: as above; format: cell-based; settings: read-out: minimum inhibitory concentration (MIC)
Procedure: as §3

Enterobacter cloacae 963 = experiment: as above; format: cell-based; settings: Enterobacter cloacae 963, twofold agar-dilution; read-out: minimum inhibitory concentration (MIC)
Procedure: as §3

[9] = tested on: Salmonella enteritidis No. 1891; experiment: as above; format: cell-based; settings: Salmonella enterica; Salmonella enteritidis No. 1891, twofold agar-dilution; read-out: minimum inhibitory concentration (MIC)
Procedure: as §3

[10] = tested on: Serratia marcescens IFO 3736; experiment: as above; format: cell-based; settings: IFO3736; Serratia marcescens IFO 3736, twofold agar-dilution; read-out: minimum inhibitory concentration (MIC)
Procedure: as §3

[11] = tested on: Klebsiella pneumoniae No. 13; experiment: as above; format: cell-based; settings: Klebsiella pneumoniae No. 13, twofold agar-dilution; read-out: minimum inhibitory concentration (MIC)
Procedure: as §3

[12] = tested on: Pseudomonas aeruginosa No. 12; experiment: as above; format: cell-based; settings: Pseudomonas aeruginosa No. 12, twofold agar-dilution; read-out: minimum inhibitory concentration (MIC)
Procedure: as §3

[13] = tested on: Pseudomonas aeruginosa No. 12; experiment: In vivo therapeutic efficacy against ascending kidney infection; parameters: species or system mice (Std:ddY-S); settings: NO.12, 120 h, female mice, po, twice a day for 3 days, kidneys on 5th day, probit analysis
Procedure: Compounds 1 and A were tested by the following procedure for therapeutic efficacy against the ascending kidney infection with Pseudomonas aeruginosa No. 12 in mice. Female mice (Std:ddY-S) weighing 22 to 30 g were anesthetized by intravenous injection of sodium pentobarbital at a dose of 50 mg/kg. Through a small suprapubic incision, the urinary bladder was exposed and then infected by injecting 0.1 ml of a 1:10,000 dilution of Pseudomonas aeruginosa No. 12 cultured for 20 hours in trypto-soy broth, using a 0.25 ml syringe with a 0.25 mm needle. The mice were restrained from drinking water for a period from 1 day before to 1 day after the infection. The compound 1 or A was administered orally twice a day for 3 days starting on the day of infection. On the 5th day after infection, the kidneys were harvested for the detection of the bacteria, transversely bisected and stamped on King A agar, which were incubated at 37° C. overnight. No bacterial finding in the kidneys was regarded as protected from the ascending kidney infection. ED50 values were calculated by probit analysis.

[14] = tested on: Pseudomonas aeruginosa No. 12; experiment: In vivo therapeutic efficacy against dermal infections; parameters: species or system mice (ddY-S); settings: NO.12, 96 h, dermal infection, female mice, po, 6 times (0, 3, 6, 24, 27, 30 hours), abscess on 4th day, probit analysis
Procedure: Female mice (ddY-S) weighing 21 to 26 g were subcutaneously infected at the dorsal skin with approximate 9×10^6 viable cells of Pseudomonas aeruginosa No. 12 in 0.2 ml physiological saline. Medication was performed 6 times; 0, 3, 6, 24, 27, and 30 hours after infection. The appearance of skin abscess at the inoculated site was examined on the 4th day after infection and mice bearing no abscess were regarded as protected from the infection. ED50 was calculated by probit analysis.

[15] = Acute oral toxicity in mice; settings: mouse, in vivo, male mice, deaths after 7 days, Behrens-Kaerber, read-out: median lethal dose (LD50)
Procedure: A solution containing compound 1 in various concentrations was orally given to male mice (ddY-S) at a volume of 0.1 ml per 10 g of body weight. The number of dead mice was counted after 7 days, and the value of median lethal dose (LD50; mg/kg) was calculated in accordance with the Behrens-Kaerber method.

Gram-negative bacteria = experiment: In vivo antibacterial efficacy (Tables II to V), overall comparison; parameters: species or system mice; settings: compound 1 compared with compound A
From the text: Compounds 1 and A were each suspended in a 0.2% aqueous solution of sodium carboxymethyl cellulose. Each of the solutions was orally administered to mice infected with each of the test organisms under the conditions described below, and the median effective doses (ED50) obtained are shown in Table II.
as §1
Female mice (Std:ddY-S) weighing 22 to 30 g were anesthetized by intravenous injection of sodium pentobarbital at a dose of 50 mg/kg. Through a small suprapubic incision, the urinary bladder was exposed and then infected by injecting 0.1 ml of a 1:10,000 dilution of Pseudomonas aeruginosa No. 12 cultured for 20 hours in trypto-soy broth, using a 0.25 ml syringe with a 0.25 mm needle. […] ED50 values were calculated by probit analysis.
Female mice (ddY-S) weighing 21 to 26 g were subcutaneously infected at the dorsal skin with approximate 9×10^6 viable cells of Pseudomonas aeruginosa No. 12 in 0.2 ml physiological saline. […] ED50 was calculated by probit analysis.

Compound	ED50 [1] [mg/kg]	ED50 [2] [mg/kg]	ED50 (Escherichia coli P-5101 [3]) [mg/kg]	MIC [4] [µg/mL]	MIC [5] [µg/mL]	MIC (Proteus morganii Kono) [µg/mL]	MIC (Shigella flexneri 2a) [µg/mL]	MIC (Escherichia coli P-5101 [6]) [µg/mL]	MIC [7] [µg/mL]	MIC [8] [µg/mL]	MIC (Enterobacter cloacae 963) [µg/mL]	MIC [9] [µg/mL]	MIC [10] [µg/mL]	MIC [11] [µg/mL]	MIC [12] [µg/mL]	ED50 [13] [mg/kg]	ED50 [14] [mg/kg]	LD50 at 168 h [15] [mg/kg]	in vivo antibacterial efficacy against Gram-negative bacteria (Gram-negative bacteria)
CCn1cc(C(=O)O)c(=O)c2cc(F)c(N3CCC(N)C3)nc21 (stereo not drawn) [A, 7-(3-Amino-1-pyrrolidinyl)-1-ethyl-6-fluoro-1,4-dihydro-4-oxo-1,8-naphthyridine-3-carboxylic acid, reference compound]	19.7	6.7	1.6	0.1 (≈ 0.312 µM)	0.1 (≈ 0.312 µM)	0.2 (≈ 0.624 µM)	0.1 (≈ 0.312 µM)	0.05 (≈ 0.156 µM)	0.39 (≈ 1.22 µM)	0.39 (≈ 1.22 µM)	0.2 (≈ 0.624 µM)	0.05 (≈ 0.156 µM)	0.2 (≈ 0.624 µM)	0.2 (≈ 0.624 µM)	0.39 (≈ 1.22 µM)	3	11.7		
C=Cn1cc(C(=O)O)c(=O)c2cc(F)c(N3CCC(N)C3)nc21 (stereo not drawn) [Compound 1, 7-(3-Amino-1-pyrrolidinyl)-6-fluoro-1,4-dihydro-4-oxo-1-vinyl-1,8-naphthyridine-3-carboxylic acid]	6.3	1.8	0.8	0.025 (≈ 0.0785 µM)	0.05 (≈ 0.157 µM)	0.05 (≈ 0.157 µM)	0.025 (≈ 0.0785 µM)	0.025 (≈ 0.0785 µM)	0.2 (≈ 0.628 µM)	0.2 (≈ 0.628 µM)	0.05 (≈ 0.157 µM)	0.025 (≈ 0.0785 µM)	0.2 (≈ 0.628 µM)	0.1 (≈ 0.314 µM)	0.2 (≈ 0.628 µM)	0.5	2.4	> 4000	much better in vivo antibacterial efficacy against Gram-negative bacteria than the compound A
